The NIST ThermoML archive (doi:10.1016/j.tca.2015.02.001)
Numbers after ± are expanded uncertainties.

Legend:
[1] = Molar enthalpy of transition or fusion; settings: Crystal; DSC
[2] = Crystal; DTA

Molar enthalpy of transition or fusion [1] [kJ/mol] | Triple point temperature [2] [K] | Compound
19.3 ± 1.5 | 340.15 ± 2 | CCn1cc[n+](C)c1.[Br-] [1-ethyl-3-methylimidazolium bromide]
14.2 ± 1.4 | 359.15 ± 2 | CCn1cc[n+](C)c1.[Cl-] [1-ethyl-3-methylimidazolium chloride]
16.9 ± 1.3 | 347.15 ± 2 | CCn1cc[n+](C)c1.[I-] [1-ethyl-3-methylimidazolium iodide]
